From patent US20210045385A1, “PYRIDAZINONE-SUBSTITUTED KETOXIMES AS HERBICIDES” (FMC Corporation, priority 2018, published 2021)

Tests used:
Type in all cases: in vivo
kochia (Bassia scoparia) [1] = test: Test C postemergence, visual plant response rating
How it was run: (§1)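 Seeds sown in a loam–sand blend got a directed preemergence soil spray; postemergence plants (2–10 cm, one- to two-leaf stage) were sprayed with compound in a non-phytotoxic solvent plus surfactant. Injury was scored visually against untreated controls after about 10 d in a greenhouse on a 0–100 scale (100 = complete control).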

[2] = tested on: blackgrass (Alopecurus myosuroides); test: Test C postemergence, visual plant response rating
How it was run: as §1

[3] = tested on: pigweed (Amaranthus retroflexus); test: Test C postemergence, visual plant response rating
How it was run: as §1

[4] = tested on: ragweed (common ragweed, Ambrosia artemisiifolia); test: Test C postemergence, visual plant response rating
How it was run: as §1

[5] = tested on: wheat (Triticum aestivum); test: Test C postemergence, visual plant response rating
How it was run: as §1

[6] = tested on: barnyardgrass (Echinochloa crus-galli); test: Test C postemergence, visual plant response rating
How it was run: as §1

corn (Zea mays) = test: Test C postemergence, visual plant response rating
How it was run: as §1

[7] = tested on: galium (catchweed bedstraw, Galium aparine); test: Test C postemergence, visual plant response rating
How it was run: as §1

[8] = tested on: Italian ryegrass (Lolium mutiflorum); test: Test C postemergence, visual plant response rating
How it was run: as §1

[9] = tested on: foxtail, giant (giant foxtail, Setaria faberi); test: Test C postemergence, visual plant response rating
How it was run: as §1

rice (Oryza sativa) = test: Test D flooded paddy test, visual plant response rating; conditions: 250 g ai/ha, scale 0 to 100 (0 no effect, 100 complete control), 13 to 15 d
How it was run: (§2)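 Plants grown to the 2-leaf stage; pots flooded to 3 cm above soil and compound applied directly into paddy water, depth held throughout. Kept in greenhouse 13 to 15 d, then rated visually against untreated controls on a 0–100 scale (0 no effect, 100 complete control).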

[10] = tested on: barnyardgrass (Echinochloa crus-galli); test: as above; conditions: 250 g ai/ha, scale 0 to 100 (0 no effect, 100 complete control), 13 to 15 d
How it was run: as §2

[11] = tested on: duck salad (Heteranthera limosa); test: as above; conditions: 250 g ai/ha, scale 0 to 100 (0 no effect, 100 complete control), 13 to 15 d
How it was run: as §2

[12] = tested on: sedge umbrella (small-flower umbrella sedge, Cyperus difformis); test: as above; conditions: 250 g ai/ha, scale 0 to 100 (0 no effect, 100 complete control), 13 to 15 d
How it was run: as §2

kochia (Bassia scoparia) [13] = test: Test C preemergence, visual plant response rating; conditions: Test C, 0 is no effect, 100 is complete control
How it was run: as §1

[14] = tested on: pigweed (Amaranthus retroflexus); test: Test C preemergence, visual plant response rating; conditions: Test C, 0 is no effect, 100 is complete control
How it was run: as §1

[15] = tested on: ragweed (common ragweed, Ambrosia artemisiifolia); test: Test C preemergence, visual plant response rating; conditions: Test C, 0 is no effect, 100 is complete control
How it was run: as §1

[16] = tested on: barnyardgrass (Echinochloa crus-galli); test: Test C preemergence, visual plant response rating; conditions: Test C, 0 is no effect, 100 is complete control
How it was run: as §1

[17] = tested on: Italian ryegrass (Lolium mutiflorum); test: Test C preemergence, visual plant response rating; conditions: Test C, 0 is no effect, 100 is complete control
How it was run: as §1

[18] = tested on: foxtail, giant (giant foxtail, Setaria faberi); test: Test C preemergence, visual plant response rating; conditions: Test C, 0 is no effect, 100 is complete control
How it was run: as §1

[19] = Test C, postemergence, 125 g ai/ha

Structure (SMILES)	Kochia plant response rating (0 to 100 scale) (kochia (Bassia scoparia) [1]; Postemergence, 31 g ai/ha)	Kochia plant response rating (0 to 100 scale) (kochia (Bassia scoparia) [1]; [19])	Blackgrass plant response rating (0 to 100 scale) ([2]; Postemergence, 31 g ai/ha)	Blackgrass plant response rating (0 to 100 scale) [2, 19]	Pigweed plant response rating (0 to 100 scale) ([3]; Postemergence, 31 g ai/ha)	Pigweed plant response rating (0 to 100 scale) [3, 19]	Ragweed plant response rating (0 to 100 scale) ([4]; Postemergence, 31 g ai/ha)	Ragweed plant response rating (0 to 100 scale) [4, 19]	Wheat plant response rating (0 to 100 scale) ([5]; Postemergence, 31 g ai/ha)	Wheat plant response rating (0 to 100 scale) [5, 19]	Barnyardgrass plant response rating (0 to 100 scale) ([6]; Postemergence, 31 g ai/ha)	Barnyardgrass plant response rating (0 to 100 scale) [6, 19]	Corn plant response rating (0 to 100 scale) (corn (Zea mays); Postemergence, 31 g ai/ha)	Corn plant response rating (0 to 100 scale) (corn (Zea mays); [19])	Galium plant response rating (0 to 100 scale) ([7]; Postemergence, 31 g ai/ha)	Galium plant response rating (0 to 100 scale) [7, 19]	Ryegrass, Italian plant response rating (0 to 100 scale) ([8]; Postemergence, 31 g ai/ha)	Ryegrass, Italian plant response rating (0 to 100 scale) [8, 19]	Foxtail, Giant plant response rating (0 to 100 scale) ([9]; Postemergence, 31 g ai/ha)	Foxtail, Giant plant response rating (0 to 100 scale) [9, 19]	also measured
C#CCON=C(c1cccc(OC)c1)c1c(O)c(C)nn(C)c1=O [Compound 203]	20	50	0	0	10	20	0	10	0	0	0	20	0	0	30	30	30	30	0	30	Plant response rating, Rice (Flood) (rice (Oryza sativa)): 0; Plant response rating, Barnyardgrass (Flood) [10]: 0; Plant response rating, Ducksalad (Flood) [11]: 0; Plant response rating, Sedge, Umbrella (Flood) [12]: 0; Kochia plant response rating (0 to 100 scale) (kochia (Bassia scoparia) [13]; 31 g ai/ha): 0; Kochia plant response rating (0 to 100 scale) (kochia (Bassia scoparia) [13]; 125 g ai/ha): 0; Pigweed plant response rating (0 to 100 scale) ([14]; 31 g ai/ha): 0; Pigweed plant response rating (0 to 100 scale) ([14]; 125 g ai/ha): 0; Ragweed plant response rating (0 to 100 scale) ([15]; 31 g ai/ha): 0; Ragweed plant response rating (0 to 100 scale) ([15]; 125 g ai/ha): 0; Barnyardgrass plant response rating (0 to 100 scale) ([16]; 31 g ai/ha): 0; Barnyardgrass plant response rating (0 to 100 scale) ([16]; 125 g ai/ha): 0; Ryegrass, Italian plant response rating (0 to 100 scale) ([17]; 31 g ai/ha): 0; Ryegrass, Italian plant response rating (0 to 100 scale) ([17]; 125 g ai/ha): 0; Foxtail, Giant plant response rating (0 to 100 scale) ([18]; 31 g ai/ha): 0; Foxtail, Giant plant response rating (0 to 100 scale) ([18]; 125 g ai/ha): 10
CON=C(c1cccc(OC)c1)c1c(O)c(C)nn(C)c1=O [Compound 204]	0	10	0	0	0	10	0	0	0	0	0	0	0	0	10	40	0	0	0	0	Plant response rating, Rice (Flood) (rice (Oryza sativa)): 0; Plant response rating, Barnyardgrass (Flood) [10]: 0; Plant response rating, Ducksalad (Flood) [11]: 0; Plant response rating, Sedge, Umbrella (Flood) [12]: 0; Kochia plant response rating (0 to 100 scale) (kochia (Bassia scoparia) [13]; 31 g ai/ha): 0; Kochia plant response rating (0 to 100 scale) (kochia (Bassia scoparia) [13]; 125 g ai/ha): 0; Pigweed plant response rating (0 to 100 scale) ([14]; 31 g ai/ha): 0; Pigweed plant response rating (0 to 100 scale) ([14]; 125 g ai/ha): 0; Ragweed plant response rating (0 to 100 scale) ([15]; 31 g ai/ha): 0; Ragweed plant response rating (0 to 100 scale) ([15]; 125 g ai/ha): 0; Barnyardgrass plant response rating (0 to 100 scale) ([16]; 31 g ai/ha): 0; Barnyardgrass plant response rating (0 to 100 scale) ([16]; 125 g ai/ha): 0; Ryegrass, Italian plant response rating (0 to 100 scale) ([17]; 31 g ai/ha): 0; Ryegrass, Italian plant response rating (0 to 100 scale) ([17]; 125 g ai/ha): 0; Foxtail, Giant plant response rating (0 to 100 scale) ([18]; 31 g ai/ha): 0; Foxtail, Giant plant response rating (0 to 100 scale) ([18]; 125 g ai/ha): 0
CO/N=C(\c1c(O)c(Cl)nn(C)c1=O)c1ccc(F)c2ccccc12 [Compound 208]	50	70	0	30	30	40	100	100	0	0	30	60	0	10	90	100	30	80	20	60	Plant response rating, Rice (Flood) (rice (Oryza sativa)): 0; Plant response rating, Barnyardgrass (Flood) [10]: 0; Plant response rating, Ducksalad (Flood) [11]: 0; Plant response rating, Sedge, Umbrella (Flood) [12]: 0; Kochia plant response rating (0 to 100 scale) (kochia (Bassia scoparia) [13]; 31 g ai/ha): 0; Kochia plant response rating (0 to 100 scale) (kochia (Bassia scoparia) [13]; 125 g ai/ha): 20; Pigweed plant response rating (0 to 100 scale) ([14]; 31 g ai/ha): 40; Pigweed plant response rating (0 to 100 scale) ([14]; 125 g ai/ha): 100; Ragweed plant response rating (0 to 100 scale) ([15]; 31 g ai/ha): 60; Ragweed plant response rating (0 to 100 scale) ([15]; 125 g ai/ha): 100; Barnyardgrass plant response rating (0 to 100 scale) ([16]; 31 g ai/ha): 0; Barnyardgrass plant response rating (0 to 100 scale) ([16]; 125 g ai/ha): 80; Ryegrass, Italian plant response rating (0 to 100 scale) ([17]; 31 g ai/ha): 10; Ryegrass, Italian plant response rating (0 to 100 scale) ([17]; 125 g ai/ha): 70; Foxtail, Giant plant response rating (0 to 100 scale) ([18]; 31 g ai/ha): 50; Foxtail, Giant plant response rating (0 to 100 scale) ([18]; 125 g ai/ha): 90
CC(C)O/N=C(/c1c(O)c(Cl)nn(C)c1=O)c1ccc(F)c2ccccc12 [Compound 209]	10	40	10	30	50	90	90	90	0	0	50	80	10	20	90	100	10	40	70	90	Plant response rating, Rice (Flood) (rice (Oryza sativa)): 0; Plant response rating, Barnyardgrass (Flood) [10]: 0; Plant response rating, Ducksalad (Flood) [11]: 50; Plant response rating, Sedge, Umbrella (Flood) [12]: 80; Kochia plant response rating (0 to 100 scale) (kochia (Bassia scoparia) [13]; 31 g ai/ha): 0; Kochia plant response rating (0 to 100 scale) (kochia (Bassia scoparia) [13]; 125 g ai/ha): 40; Pigweed plant response rating (0 to 100 scale) ([14]; 31 g ai/ha): 20; Pigweed plant response rating (0 to 100 scale) ([14]; 125 g ai/ha): 100; Ragweed plant response rating (0 to 100 scale) ([15]; 31 g ai/ha): 90; Ragweed plant response rating (0 to 100 scale) ([15]; 125 g ai/ha): 90; Barnyardgrass plant response rating (0 to 100 scale) ([16]; 31 g ai/ha): 50; Barnyardgrass plant response rating (0 to 100 scale) ([16]; 125 g ai/ha): 80; Ryegrass, Italian plant response rating (0 to 100 scale) ([17]; 31 g ai/ha): 10; Ryegrass, Italian plant response rating (0 to 100 scale) ([17]; 125 g ai/ha): 30; Foxtail, Giant plant response rating (0 to 100 scale) ([18]; 31 g ai/ha): 80; Foxtail, Giant plant response rating (0 to 100 scale) ([18]; 125 g ai/ha): 100
